In US20220242846A1, “ISOINDOLINONE COMPOUNDS” (Monte Rosa Therapeutics AG, priority 2019, published 2022):

What was measured:
[1] = target: T1, Full length wild-type cereblon CRBN (Homo sapiens, UniProt Q96SW2); test: Fluorescence polarization (FP) assay indicating cereblon binding; conditions: CRBN 80.0 nM, fluorescent probe 5 nM, FP measured after 12 hours; read-out: rFP IC50
T1 construct: Full length wild-type cereblon CRBN (80.0 nM, 10 μL) was incubated in assay buffer
Text: Protocol for Fluorescent Polarization Assay
Compound activity was monitored in a fluorescence polarization (FP) homogeneous assay using 1-[5-({2-[2-(2-{[2-(2,6-dioxopiperidin-3-yl)-1,3-dioxo-2,3-dihydro-1H-isoindol-4-yl]oxy}acetamido)ethoxy]ethyl}carbamoyl)pentyl]-3,3-dimethyl-2-[(1E,3E)-5-[(2E)-1,3,3-trimethyl-5-sulfo-2,3-dihydro-1H-indol-2-ylidene]penta-1,3-dien-1-yl]-3H-indol-1-ium-5-sulfonate as a fluorescent probe. Unless otherwise stated, all reagents were purchased from Sigma Aldrich. Enzymatic reactions were conducted in Perkin-Elmer Black 384 well ProxiPlate Plus (catalogue no. 6008269) in 10 μL total volume. Full length wild-type cereblon CRBN (80.0 nM, 10 μL) was incubated in assay buffer containing 20 mM HEPES (pH 8.0), […], 0.5 mM TCEP and 0.05% Tween 20 in the presence or absence of compound (300 nL). Inhibitors were stored as 10 mM DMSO stocks in an inert environment (low humidity, dark, low oxygen, room temperature) using the Storage Pod System. Compounds and DMSO were dispensed using the Echo E5XX (Labcyte Inc. USA) to give concentrations from 300 to 0.937 or 3000 to 9.3 nM in a 12 data point curve. […] Following incubation at room temperature for […], the assay was initiated by dispensing the probe to a final concentration of 5 nM (2.5 nL of a 20 μM stock) using the Echo E5XX. FP was measured after a period of 12 hours using a Pherastar plate reader (BMG Labtech, Germany) exciting at 590 nm and measuring the amount of parallel and perpendicular light at 675 nm. The FP signal was subsequently normalized to the no-compound control (i.e., DMSO). Analysis and IC50 values were derived using Dotmatics (Dotmatics UK) software.

GSPT1 = GSPT1 (Homo sapiens, UniProt P15170+Q96SW2); test: Immunofluorescence assay for GSPT1 degradation in CAL-51 cells; format: cell-based; parameters: CAL-51 cells were purchased from DSMZ (cat. Number ACC302); endogenous in cells; host or cells: CAL-51 (DSMZ ACC302); conditions: compound treatment 6 hours, read-out: Code: activity for GSPT1 degradation (DC50)
GSPT1, sequence (P15170 whole entry): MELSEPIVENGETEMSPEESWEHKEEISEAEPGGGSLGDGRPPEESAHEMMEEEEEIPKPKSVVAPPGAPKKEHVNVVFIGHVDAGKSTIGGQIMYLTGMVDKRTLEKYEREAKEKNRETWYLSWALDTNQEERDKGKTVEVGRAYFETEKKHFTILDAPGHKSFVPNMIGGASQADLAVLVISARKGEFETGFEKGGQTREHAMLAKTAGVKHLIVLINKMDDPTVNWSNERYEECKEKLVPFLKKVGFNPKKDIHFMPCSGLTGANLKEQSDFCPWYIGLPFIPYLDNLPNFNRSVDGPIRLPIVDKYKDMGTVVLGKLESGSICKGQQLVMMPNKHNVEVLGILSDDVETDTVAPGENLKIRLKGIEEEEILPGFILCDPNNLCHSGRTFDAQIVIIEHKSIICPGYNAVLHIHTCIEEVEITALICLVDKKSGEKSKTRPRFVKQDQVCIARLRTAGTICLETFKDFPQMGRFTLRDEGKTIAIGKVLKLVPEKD
GSPT1, sequence (Q96SW2 whole entry): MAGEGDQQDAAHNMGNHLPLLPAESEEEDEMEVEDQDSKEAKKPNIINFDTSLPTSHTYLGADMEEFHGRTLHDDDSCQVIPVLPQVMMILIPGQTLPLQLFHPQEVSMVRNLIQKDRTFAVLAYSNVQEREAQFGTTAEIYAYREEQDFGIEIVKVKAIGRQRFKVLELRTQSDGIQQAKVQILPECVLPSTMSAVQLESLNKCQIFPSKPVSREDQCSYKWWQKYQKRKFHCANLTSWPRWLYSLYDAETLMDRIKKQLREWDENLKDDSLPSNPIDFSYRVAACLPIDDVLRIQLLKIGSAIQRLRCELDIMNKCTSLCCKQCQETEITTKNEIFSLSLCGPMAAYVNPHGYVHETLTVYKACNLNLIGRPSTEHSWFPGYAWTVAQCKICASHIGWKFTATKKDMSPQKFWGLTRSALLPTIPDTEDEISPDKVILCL
GSPT1, sequence (Q16531 2-1140 partner limits assumed): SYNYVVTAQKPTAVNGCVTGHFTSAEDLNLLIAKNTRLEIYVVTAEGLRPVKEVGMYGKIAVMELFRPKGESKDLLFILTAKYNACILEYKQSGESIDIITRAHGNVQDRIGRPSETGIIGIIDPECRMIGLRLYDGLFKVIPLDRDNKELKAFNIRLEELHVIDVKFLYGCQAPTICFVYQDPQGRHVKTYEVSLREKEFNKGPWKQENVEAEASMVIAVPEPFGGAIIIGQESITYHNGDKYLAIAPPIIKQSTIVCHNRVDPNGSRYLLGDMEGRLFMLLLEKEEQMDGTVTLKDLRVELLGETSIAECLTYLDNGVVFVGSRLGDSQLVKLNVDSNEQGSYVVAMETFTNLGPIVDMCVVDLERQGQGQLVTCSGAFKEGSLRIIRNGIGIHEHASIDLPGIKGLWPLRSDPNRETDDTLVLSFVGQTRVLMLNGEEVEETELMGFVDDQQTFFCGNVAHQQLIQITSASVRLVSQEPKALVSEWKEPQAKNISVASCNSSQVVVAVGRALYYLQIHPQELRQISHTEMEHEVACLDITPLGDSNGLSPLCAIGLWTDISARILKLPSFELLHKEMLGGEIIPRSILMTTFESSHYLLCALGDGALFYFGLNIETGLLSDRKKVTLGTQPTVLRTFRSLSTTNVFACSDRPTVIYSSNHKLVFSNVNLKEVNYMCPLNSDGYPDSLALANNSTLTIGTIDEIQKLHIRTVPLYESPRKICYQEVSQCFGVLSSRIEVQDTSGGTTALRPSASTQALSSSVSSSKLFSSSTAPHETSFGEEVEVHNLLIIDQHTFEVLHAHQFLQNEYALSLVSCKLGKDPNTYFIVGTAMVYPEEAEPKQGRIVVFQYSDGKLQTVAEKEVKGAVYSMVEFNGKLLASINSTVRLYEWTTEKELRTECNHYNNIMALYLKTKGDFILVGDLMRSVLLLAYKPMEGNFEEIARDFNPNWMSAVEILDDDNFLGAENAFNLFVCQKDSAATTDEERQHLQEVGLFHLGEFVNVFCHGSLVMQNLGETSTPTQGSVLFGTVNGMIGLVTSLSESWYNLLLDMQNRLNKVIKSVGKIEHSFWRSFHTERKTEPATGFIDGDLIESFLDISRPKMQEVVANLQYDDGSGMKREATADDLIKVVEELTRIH
Description: CAL-51 cells were purchased from DSMZ (cat. Number ACC302), sub-cultured in 90% Dulbecco's MEM (4.5 g/L glucose, Gibco 11965) +10% heat inactivated FBS (BioConcept, 2-01F136I) and incubated at 37° C., 5% CO2. For the assay, imaging microtiterplate Cell Carrier 96 Ultra (Perkin Elmer 6055302) were pre-coated with Fibronectin (Sigma F085, 300 at 0.2 μg/ml) in PBS (1000, Gibco 14190) for 45 min at room temperature, rinsed with PBS and CAL-51 cells (30K cells/well) were plated and let to adhere overnight. Cells were treated with compounds typically using a serial dilution ranging from 30 μM to 0.1 nM for 6 hours. Compounds were stored at 10 mM DMSO stocks. Vehicle (DMSO), positive (CC-885, 10 μM) and rescue controls (positive control plus 0.2 μM bortezomib) were also included at this stage. Cells were subsequently rinsed with PBS and fixed in 10% Formalin solution (50 μl, Sigma HT5011)) for 20 mins at room temperature. Following three consecutive PBS washes (100 μl), cells were permeabilized in 0.1% Triton X-100 in PBS (Sigma 93443, 50 μl) for 15 mins at room temperature. Following three further PBS washes, 50 μl blocking buffer (1% BSA, Sigma A4503, in PBS) was added for 45 min for signal-to-noise reduction. Primary antibody (human GSPT1, Sigma HPA052488) was diluted in blocking buffer (dil. 1/300, 35 μl/well) and incubated with the cells overnight at 4° C. After three PBS washes, Alexa-fluor 488 coupled secondary antibodies (Invitrogen, A32731, dil. 1/1000), Alexa-fluor 647-Phalloïdin (Invitrogen, A22287, dil. 1/200) and DAPI (Thermo, #62248, dil.1/1000) were diluted in blocking buffer and incubated with the samples for 2 hours at room temperature. After three final PBS washes, samples were conserved in 1000 PBS in the dark, until measurement. Image acquisition was performed on the Operetta High-Content Imager (Perkin-Elmer). Fluorescence intensity of Alexa-Fluor 488 (GSPT1), Alexa-Fluor 647 (Actin) and DAPI (Nucleus) were measured. For the determination of GSPT1 DC50 values, a custom algorithm implemented in the PerkinElmer image analysis software Harmony-Acapella® was developed. After user-defined setting of adjustment parameters, the analysis was run identically without human intervention for all image fields. DAPI staining of the nuclei was used to determine the location of cells using standard nuclei detection modules. Segmentation artifacts were removed by threshold-based filters for area, roundness and intensity. The outline of the cells was determined analogously from the sum of the normalized, smoothed DAPI and Actin channel, starting from each nucleus. The Alexa-Fluor 488 (GSPT1) signal intensity in each cell was finally measured, in order to obtain a Mean intensity per cell. GSPT1 degradation (DC50) was calculated after normalization to controls and data import in CDD vault Database, using non-linear regression. Activity for GSPT1 Degradation Table 3 assigns each compound a code indicating the ability for GSPT1 degradation: A, B or C. According to the code, A represents a DC50 value of ≤100 nM, B represents a DC50 value >100 nM and ≤300 nM and C represents a DC50 value of >300 nM.

T1 sequence (Q96SW2 whole entry): as the sequence (Q96SW2 whole entry) above

Structure (SMILES) | IC50 [1] [nM] | DC50 (GSPT1) [nM]
O=C1CCC(N2Cc3ccc(CNC(=O)Nc4cc(Cl)cc(CN5CCOCC5)c4)cc3C2=O)C(=O)N1 (stereo not drawn) [Compound 119] | 408 | ≤ 100
Cc1c(Cl)cc(NC(=O)NCc2ccc3c(c2)C(=O)N(C2CCC(=O)NC2=O)C3)cc1CC(=O)O (stereo not drawn) [Compound 120] | 453 | > 300
O=C1CCC(N2Cc3ccc(CNC(=O)Nc4cccc(Oc5ccccn5)c4)cc3C2=O)C(=O)N1 (stereo not drawn) [Compound 121] | 243 | 100 to 300
Cc1c(Cl)cc(NC(=O)NCc2ccc3c(c2)C(=O)N(C2CCC(=O)NC2=O)C3)cc1N1CCOCC1 (stereo not drawn) [Compound 122] | 657 | ≤ 100
O=C1CCC(N2Cc3ccc(CNC(=O)Nc4ccccn4)cc3C2=O)C(=O)N1 (stereo not drawn) [Compound 123] | 570 | > 300
Cc1c(Cl)cc(NC(=O)NCc2ccc3c(c2)C(=O)N(C2CCC(=O)NC2=O)C3)cc1CN1CCN(C)CC1 (stereo not drawn) [Compound 124] | 198 | > 300
COCCOc1cc(NC(=O)NCc2ccc3c(c2)C(=O)N(C2CCC(=O)NC2=O)C3)cc(Cl)c1C (stereo not drawn) [Compound 125] | 596 | ≤ 100
Cc1c(Cl)cc(NC(=O)NCc2ccc3c(c2)C(=O)N(C2CCC(=O)NC2=O)C3)cc1CN1CCC(N2CCOCC2)CC1 (stereo not drawn) [Compound 126] | 193 | > 300
Cc1c(Cl)cc(NC(=O)NCc2ccc3c(c2)C(=O)N(C2CCC(=O)NC2=O)C3)cc1OCCN1CCOCC1 (stereo not drawn) [Compound 127] | 261 | ≤ 100
Cn1ccc(NC(=O)NCc2ccc3c(c2)C(=O)N(C2CCC(=O)NC2=O)C3)c1 (stereo not drawn) [Compound 128] | 302 | > 300
Cc1c(Cl)cc(NC(=O)NCc2ccc3c(c2)C(=O)N(C2CCC(=O)NC2=O)C3)cc1N(C)C (stereo not drawn) [Compound 129] | 350 | ≤ 100
CN1CCC(Oc2cccc(NC(=O)NCc3ccc4c(c3)C(=O)N(C3CCC(=O)NC3=O)C4)c2)CC1 (stereo not drawn) [Compound 130] | 358 | > 300
CC(C)(O)c1ccc(NC(=O)NCc2ccc3c(c2)C(=O)N(C2CCC(=O)NC2=O)C3)cc1 (stereo not drawn) [Compound 131] | 334 | > 300
Cc1c(Cl)cc(NC(=O)NCc2ccc3c(c2)C(=O)N(C2CCC(=O)NC2=O)C3)cc1CN1CCC(N(C)C)CC1 (stereo not drawn) [Compound 133] | 252 | > 300
Cc1c(Cl)cc(NC(=O)NCc2ccc3c(c2)C(=O)N(C2CCC(=O)NC2=O)C3)cc1OCCN(C)C (stereo not drawn) [Compound 134] | 394 | > 300
CC(C)(O)c1cccc(NC(=O)NCc2ccc3c(c2)C(=O)N(C2CCC(=O)NC2=O)C3)c1 (stereo not drawn) [Compound 135] | 477 | > 300
CN(C)CC(=O)Oc1cccc(NC(=O)NCc2ccc3c(c2)C(=O)N(C2CCC(=O)NC2=O)C3)c1 (stereo not drawn) [Compound 136] | 425 | > 300
Cc1ccc(NC(=O)NCc2ccc3c(c2)C(=O)N(C2CCC(=O)NC2=O)C3)nc1Cl (stereo not drawn) [Compound 137] | 1140 | > 300
Cc1c(Cl)cc(NC(=O)NCc2ccc3c(c2)C(=O)N(C2CCC(=O)NC2=O)C3)cc1C[C@H]1CO[C@H](C)OC1 (stereo partly drawn) [Compound 141] | 352 | ≤ 100
Cc1c(Cl)cc(NC(=O)NCc2ccc3c(c2)C(=O)N(C2CCC(=O)NC2=O)C3)cc1CC1COC(C)(C)OC1 (stereo not drawn) [Compound 142] | 594 | ≤ 100
Cc1c(Cl)cc(NC(=O)NCc2ccc3c(c2)C(=O)N(C2CCC(=O)NC2=O)C3)cc1OC(F)(F)F (stereo not drawn) [Compound 143] | 3590 | 100 to 300
Cc1ccc(NC(=O)NCc2ccc3c(c2)C(=O)N(C2CCC(=O)NC2=O)C3)cc1OC(F)(F)F (stereo not drawn) [Compound 144] | 544 | ≤ 100
Cc1c(Cl)cc(NC(=O)NCc2ccc3c(c2)C(=O)N(C2CCC(=O)NC2=O)C3)cc1C[C@H]1CO[C@@H](C)OC1 (stereo partly drawn) [Compound 145] | 741 | ≤ 100
Cc1cc(NC(=O)NCc2ccc3c(c2)C(=O)N(C2CCC(=O)NC2=O)C3)sn1 (stereo not drawn) [Compound 146] | 341 | > 300
